# Measurements as given in patent publication US9340532B2, “Methods and compositions for inhibiting CNKSR1” (PHUSIS THERAPEUTICS, INC., priority 2012, dated 2016).
# Several values for one entry are separate records, joined by “and”; a condition that tells them apart may be missing. Equal entries are not always repeated. Where two headings read alike, the source gives them in different places.
# Columns and labels:
# PH-domain of AKT = molecular target: T1, PH-domain of AKT (Homo sapiens, UniProt P31749); assay: SPR binding to expressed PH-domain of AKT
# T1 construct: made in house
# Description: (§1) In embodiments, the binding of identified compounds to the crystal structures of other PH-domain signaling proteins, AKT, PDPK1, Btk, and Tiam1 can be predicted. In such embodiments, the Kds exceed about 100 μM. In other embodiments, SPR can measure the binding of identified compounds to the expressed PH-domains of AKT, PDPK1 and Tiam1. […] Thus, the identified compounds appear have, at least, about 50 to about 100 fold selectivity for CNKSR1 compared to the other PH-domains studied.
# (§2) A commercially available docking package, GOLD (GOLD [3.2], CCDC: Cambridge, UK, 2007) was used to evaluate the docking of compounds 1-7 into the binding pocket, see e.g. Table 5. Other docking was performed using modeling algorithms with state-of-the-art commercial drug discovery software (Schrodinger suite). GLIDE was chosen as the docking algorithm used to select and optimize compounds, providing a GlideScore as a rough estimate of binding affinity that was used to rank and select the best compounds. Additionally, ligand-based approaches provided an alternative to structure based drug discovery. Ligand-based virtual screening methodologies can take into account shape and electrostatics (like ROCS) and the pharmacophoric features (acceptor, donor, hydrophobic, aromatic, etc.) of its functional groups. […]
# PH-domain of PDPK1 = molecular target: T2, PH-domain of PDPK1 (Homo sapiens, UniProt O15530); assay: SPR binding to expressed PH-domain of PDPK1
# T2 construct: made in house
# T2 sequence (O15530 459-550 limits assumed): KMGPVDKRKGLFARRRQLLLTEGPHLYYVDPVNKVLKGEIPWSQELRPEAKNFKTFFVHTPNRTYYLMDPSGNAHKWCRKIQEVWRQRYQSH
# Description: as §1, §2
# PH-domain of Tiam1 = assay: SPR binding to expressed PH-domain of Tiam1
# Description: as §1, §2
# [1] = tested on: mut-KRAS NSCLC cell lines; assay: Screening against NSCLC cell line panel, mut-KRAS lines; type: cell-based; conditions: for inhibition of mut-KRAS cell growth (in words): FIG. 3 and FIG. 5
# Description: (§3) The isogenic KRAS lines harboring G12D, G12C, and G12V were obtained from Horizon Discovery labs on a one year lease. These cells were cultured in McCoys media with 10% FBS to 80% confluency. Cells were then released from flasks via trypsinization and plated into 96-well plates at an initial density range of 2000 cells per well. Cells were allowed 24 hours to attach, and then the agents were added to the culture media at a range of concentrations from 0-100 μM. Cells were incubated for 72 hours with the drugs, and then viability was assessed using an MTS viability assay. Cells were exposed to MTS reagent (Promega) dissolved in PBS (Hyclone) at a concentration of 200 μL reagent/mL media for 2 hours. Absorbance was then read at 490 nm, and viability was expressed as a percentage normalized between the negative control (no cells plated) and the condition of cells with no drug added (100% viability) normalized as the upper limit of viability.
# (§4) Our panel of 30 cell lines and an extensive characterization were obtained from Dr. John Minna (UTSW). All cell lines were cultured in RPMI 1640 with 10% FBS. Cells were treated with concentrations of agents at concentrations 0.01 to 50 μM and evaluated as described above. IC50's were determined using Excelfit.
# CNK1 PH-domain (CNKSR1) = molecular target: T3, CNK1 PH-domain (CNKSR1) (Homo sapiens, UniProt Q969H4); assay: SPR binding assay (Biacore T100), CNK1 PH-domain; conditions: for Surface Plasmon Resonance CNKSR1 binding (RU max) / Surface Plasmon Resonance CNKSR1 stability (RU max post-injection): date 12 09 13
# T3 construct: The PH-domain His-fusion proteins (CNK1 and AKT1) were expressed and immobilized on a NTA chip; made in house
# T3 sequence (Q969H4 403-502 limits assumed): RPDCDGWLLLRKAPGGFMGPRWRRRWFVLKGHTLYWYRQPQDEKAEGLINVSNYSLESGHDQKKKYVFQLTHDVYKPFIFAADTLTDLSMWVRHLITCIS
# Description: (§5) All interaction analyses were done with a Biacore T100 Control Software v3.2, and BIAevaluation v4.1 analysis software (Biacore). The PH-domain His-fusion proteins (CNK1 and AKT1) were expressed and immobilized on a NTA chip to a level of 10,000 response units or less. Small molecule analytes at concentrations ranging from 50 μM to 0.010 μM were injected at a high flow rate (30 μL/min) DMSO concentrations in all samples and running buffer were 1-5% (v/v).
# (§6) Other docking was performed using modeling algorithms with state-of-the-art commercial drug discovery software (Schrodinger suite). […] Additionally, ligand-based approaches provided an alternative to structure based drug discovery. Ligand-based virtual screening methodologies can take into account shape and electrostatics (like ROCS) and the pharmacophoric features (acceptor, donor, hydrophobic, aromatic, etc.) of its functional groups. […] SPR interaction analyses of all other compounds was undertaken using a Biacore T100 with Control and Evaluation software kit.
# AKT1 PH-domain = molecular target: T4, AKT1 PH-domain (Homo sapiens, UniProt P31749); assay: SPR binding assay (Biacore T100), AKT1 PH-domain; conditions: for Kd: read-out: AKT KD; for AKT KD: Table 7, curated diversity set
# T4 construct: The PH-domain His-fusion proteins (CNK1 and AKT1) were expressed and immobilized on a NTA chip; made in house
# Description: as §5
# (§7) A commercially available docking package, GOLD (GOLD [3.2], CCDC: Cambridge, UK, 2007) was used to evaluate the docking of compounds 1-7 into the binding pocket, see e.g. Table 5. Other docking was performed using modeling algorithms with state-of-the-art commercial drug discovery software (Schrodinger suite). GLIDE was chosen as the docking algorithm used to select and optimize compounds, providing a GlideScore as a rough estimate of binding affinity that was used to rank and select the best compounds. Additionally, ligand-based approaches provided an alternative to structure based drug discovery. Ligand-based virtual screening methodologies can take into account shape and electrostatics (like ROCS) and the pharmacophoric features (acceptor, donor, hydrophobic, aromatic, etc.) of its functional groups. Inositol tetraphosphate (IP4) binding to the PH-domain of CNKSR1 provided a good starting point for shape screening. Both structure-based and ligand-based approaches were used to find novel compounds (Table 7) and to refine and improve lead compounds (Tables 8, and 9). SPR interaction analyses for Compounds 1 through 7 were performed with a Biacore 2000, using Biacore2000 Control Software v3.2 and BIAevaluation v4.1 analysis software (Biacore) as described in Mol Cancer Ther 7:2621 (2008). SPR interaction analyses of all other compounds was undertaken using a Biacore T100 with Control and Evaluation software kit.
# wt-KRAS NSCLC cell lines = assay: Screening against NSCLC cell line panel, wt-KRAS lines; type: cell-based; conditions: for inhibition of wt-KRAS cell growth (in words): FIG. 5
# Description: as §3, §4
# [2] = Pharmacokinetics after oral administration; type: in vivo, mice; conditions: compound 8 administered orally to mice at the same dose (200 mg/kg); 200 mg/kg
# Description: In order to understand better the reasons for the antitumor activity of compound #7 pharmacokinetic studies were conducted. […] Following oral administration in vivo plasma concentrations of the parent compound were low, about 3 μg/ml (7 μM) whereas the de-esterified acid form (compound 8) was present at high peak concentrations of around 50 μg/ml (128 μM). When compound 8 was administered orally to mice at the same dose even higher peak concentrations of 90 μg/ml (230 μM) were achieved.
# [3] = Mouse pharmacokinetics (iv); type: in vivo; conditions: for clearance: in vivo
# [4] = tested on: A549 (KRAS mutant cell line); assay: Proliferation Assay A549; type: cell-based; conditions: Homo sapiens, N = 2 experiments
# Description: as §3, §4
# [5] = tested on: H1373 (KRAS mutant cell line); assay: Proliferation Assay H1373; type: cell-based; conditions: Homo sapiens, NCI-H1373, N = 2 experiments
# Description: as §3, §4
# [6] = tested on: H1975 (KRAS wildtype cell line); assay: Proliferation Assay H1975; type: cell-based; conditions: Homo sapiens, NCI-H1975, n = 1
# Description: as §3, §4
# [7] = tested on: H226 (KRAS wildtype cell line); assay: Proliferation Assay H226; type: cell-based; conditions: Homo sapiens, NCI-H226, n = 1
# Description: as §3, §4
# PLE = assay: SPR binding, PLE; conditions: Table 8
# Description: as §7, with “SPR interaction analyses of all other compounds was undertaken using a Biacore T100 with Control and Evaluation software kit.” left out
# PH-domain of CNKSR1 = molecular target: T5, PH-domain of CNKSR1 (Homo sapiens, UniProt Q969H4); assay: SPR binding (Biacore 2000) to CNKSR1 PH-domain, initial hits; conditions: Table 5
# T5 sequence (Q969H4 403-502 limits assumed): T3 sequence (Q969H4 403-502 limits assumed)
# Description: In embodiments, a homology model for the PH-domain of CNSKR1 based on known PH-domain crystal structures can be developed. The docking program PHuDock® can be used to identify potential inhibitors of CNKSR1. […] The binding of the compounds to the expressed PH-domain of CNKSR1 (KDobs) can be measured by surface plasmon resonance (SPR) spectroscopy.
# as §6
# [8] = Table 6, mean of 3 mut-KRAS lines, read-out: NSCL cell line cytotoxicity IC50 mut-KRAS
# [9] = Table 6, mean of 3 wt-KRAS lines, read-out: NSCL cell line cytotoxicity IC50 wt-KRAS
# [10] = Table 7, read-out: IC50 mut-KRAS
# [11] = Table 7, read-out: IC50 WT-KRAS
# T4 sequence (P31749 5-108 limits assumed): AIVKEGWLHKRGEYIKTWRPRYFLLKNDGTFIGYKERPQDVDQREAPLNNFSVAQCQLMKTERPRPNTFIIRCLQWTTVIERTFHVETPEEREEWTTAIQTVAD
# T1 sequence (P31749 5-108 limits assumed): as above
SMILES,"Kd (CNK1 PH-domain (CNKSR1); Table 6, read-out: CNKS KD) [µM]",Kd (AKT1 PH-domain; Table 6) [µM],t1/2β [3] [h],clearance [3] [mL/min/kg],"IC50 [1, 10] [µM]",IC50 (wt-KRAS NSCLC cell lines; [11]) [µM],inhibition of mut-KRAS cell growth (in words) [1],"IC50 [1, 8] [µM]",IC50 (wt-KRAS NSCLC cell lines; [9]) [µM],other results
CCOC(=O)Cc1nn(SCC(=O)O)c(=O)c2ccccc12 [#4],,,,,,,low micromolar inhibition,,,SPR binding to PH-domain of AKT (PH-domain of AKT): No measurable binding; SPR binding to PH-domain of PDPK1 (PH-domain of PDPK1): No measurable binding; SPR binding to PH-domain of Tiam1 (PH-domain of Tiam1): No measurable binding
Cc1ccc(-c2csc(Cn3nc(CC(=O)O)c4ccccc4c3=O)n2)cc1 [Compound 8],> 100,51.6,1.2,4740,,,,> 100,> 100,activity in cells in culture ([1]; FIG. 5): inactive; peak plasma concentration [2]: 90 μg/ml and 230 μM
Cc1ccc(-c2csc(Cn3nc(Cc4nccs4)c4ccccc4c3=O)n2)cc1 [Compound 10],4.12,,4.08,119,,,inhibited the growth,34,46,selectivity for mut-KRAS cells compared to wt-KRAS cells ([1]; NSCLC cell lines): approximately two fold; inhibition of wt-KRAS cell growth (in words) (wt-KRAS NSCLC cell lines): also inhibited
Cc1ccc(-c2csc(Cn3nc(CC4OCC(=O)O4)c4ccccc4c3=O)n2)cc1 (stereo not drawn) [Compound 11],0.27,2.53,,,,,inhibited the growth,45,56,inhibition of wt-KRAS cell growth (in words) (wt-KRAS NSCLC cell lines): also inhibited
O=C(O)CSc1cc(NS(=O)(=O)c2cccs2)c2ccccc2c1O [Compound 12],,,,,17,12,more potently than compound 7 or its analogs,,,AKT KD (AKT1 PH-domain): Bound; inhibition of wt-KRAS cell growth (in words) (wt-KRAS NSCLC cell lines): more potently than compound 7 or its analogs
Cc1ccc(-c2nc(SCC(=O)O)c3c(=O)n(C)c(=O)n(C)c3n2)cc1 [Compound 61],,,,,> 100,> 100,,,,
CCNC(=O)Cc1nn(Cc2nc(-c3ccc(C)cc3)cs2)c(=O)c2ccccc12 [Compound 78],0.65,2.53,0.467,34,,,,,,Surface Plasmon Resonance CNKSR1 binding (RU max) (CNK1 PH-domain (CNKSR1)): 0.224 RU * 100/Da; Surface Plasmon Resonance CNKSR1 stability (RU max post-injection) (CNK1 PH-domain (CNKSR1)): −0.065 RU * 100/Da; IC50 [4]: 25 µM; IC50 [5]: 45 µM; IC50 [6]: 60 µM; IC50 [7]: 60 µM
"CCOC(=O)/C=C/c1cc(NS(=O)(=O)c2cccs2)c2c(c1O)OCO2 [Compound 88, (E)-ethyl 3-(4-hydroxy-7-(thiophene-2-sulfonamido)benzo[d][1,3]dioxol-5-yl)acrylate]",,,,,,,,,,"Kd (CNK1 PH-domain (CNKSR1); Table 8, read-out: CNK KD): 0.186 µM; Surface Plasmon Resonance CNKSR1 binding (RU max) (CNK1 PH-domain (CNKSR1)): 0.817 RU * 100/Da; Surface Plasmon Resonance CNKSR1 stability (RU max post-injection) (CNK1 PH-domain (CNKSR1)): 1.138 RU * 100/Da; Kd (AKT1 PH-domain; Table 8): 75.2 µM; Kd (PLE): 261 µM; IC50 [4]: > 100 µM; IC50 [5]: > 100 µM; IC50 [6]: > 100 µM; IC50 [7]: > 100 µM"
CC(=O)Nc1cccc(-n2nnc(SCC(=O)c3cc(-c4ccccc4)no3)n2)c1 [Compound 120],,,,,,,,,,"Kd (PH-domain of CNKSR1): 3.3 ± 1.2 µM; IC50 ([1]; Table 5, read-out: Mean IC50 mut-KRAS): 47 ± 5.2 µM"

# More lines, main results first:
"Kd (CNK1 PH-domain (CNKSR1); Table 6, read-out: CNKS KD) [µM]",Kd (AKT1 PH-domain; Table 6) [µM],t1/2β [3] [h],clearance [3] [mL/min/kg],"IC50 [1, 10] [µM]",IC50 (wt-KRAS NSCLC cell lines; [11]) [µM],SMILES,inhibition of mut-KRAS cell growth (in words) [1],"IC50 [1, 8] [µM]",IC50 (wt-KRAS NSCLC cell lines; [9]) [µM],other results
0.026,66.3,4.33,133,,,Cc1ccc(-c2csc(Cn3nc(CC4OCCCO4)c4ccccc4c3=O)n2)cc1 [Compound 9],,25,55,IC50 [4]: 42 µM; IC50 [5]: > 100 µM; IC50 [6]: 100 µM; IC50 [7]: > 100 µM
,,,,> 100,> 100,O=C(O)c1ccc2c(c1)C1C=CCC1C(C(=O)O)N2 (stereo not drawn) [Compound 56],,,,
,,,,> 100,> 100,O=C(O)COc1cc(OCC(=O)O)c2c3c(c(=O)oc2c1)CCCC3 [Compound 76],,,,AKT KD (AKT1 PH-domain): Bound
